Biological target: T1, TRPV3 (Homo sapiens, UniProt Q8NET8)
T1 sequence (Q8NET8 1-790): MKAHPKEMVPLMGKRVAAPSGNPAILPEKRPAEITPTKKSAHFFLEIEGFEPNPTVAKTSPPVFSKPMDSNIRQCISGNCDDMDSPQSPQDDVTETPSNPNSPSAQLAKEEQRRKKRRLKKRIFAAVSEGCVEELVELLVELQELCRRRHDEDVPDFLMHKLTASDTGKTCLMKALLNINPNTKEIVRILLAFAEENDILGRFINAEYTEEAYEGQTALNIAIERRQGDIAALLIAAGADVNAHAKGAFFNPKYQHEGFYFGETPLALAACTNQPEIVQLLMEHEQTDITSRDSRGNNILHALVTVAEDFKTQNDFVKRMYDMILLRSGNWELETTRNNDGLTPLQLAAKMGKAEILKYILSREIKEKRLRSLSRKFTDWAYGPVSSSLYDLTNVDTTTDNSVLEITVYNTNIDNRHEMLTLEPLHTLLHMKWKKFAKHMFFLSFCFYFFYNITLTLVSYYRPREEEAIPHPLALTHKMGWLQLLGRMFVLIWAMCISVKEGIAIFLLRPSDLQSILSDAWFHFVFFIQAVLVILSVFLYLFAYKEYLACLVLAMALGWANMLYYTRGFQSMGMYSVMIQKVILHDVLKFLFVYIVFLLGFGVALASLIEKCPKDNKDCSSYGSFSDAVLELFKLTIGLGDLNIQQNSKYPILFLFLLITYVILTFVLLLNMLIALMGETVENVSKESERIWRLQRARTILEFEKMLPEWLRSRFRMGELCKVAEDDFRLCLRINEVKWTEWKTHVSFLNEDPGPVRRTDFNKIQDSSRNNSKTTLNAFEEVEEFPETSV
Experiment: Whole-cell patch-clamp, 2-APB-evoked TRPV3 current in hTRPV3-overexpressing HEK 293T cells
Format: cell-based
Parameters: expressed in transfected cells
Description: First, we used a conventional whole-cell patch-clamp to record the TRPV3 current in HEK 293T cells overexpressing hTRPV3. Then, different concentrations of alpha-mangostin were perfused into the cells to determine the effects of alpha-mangostin on the TRPV3 current. Alpha-mangostin inhibited 2-APB-evoked TRPV3 current, as shown in a representative cell in Figure 1A.
Figure 1 Alpha-mangostin (α-MG) inhibited the TRPV3 current. […] (A) Alpha-mangostin inhibited 2-APB-evoked current in a representative TRPV3 overexpressing HEK 293T cell. The channel was activated using 100 µM 2-APB and subsequently perfused with solutions containing different concentrations of alpha-mangostin with 100 µM 2-APB. A solution containing 10 µM ruthenium red (RR, a TRP channel inhibitor) and 100 µM 2-APB was perfused at the end. […] Currents were normalized to the maximum response to 2-APB at −100 mV. (C) Alpha-mangostin inhibited carvacrol-evoked current in a representative TRPV3-overexpressing HEK 293T cell. TRPV3 was activated using 1000 µM carvacrol and subsequently perfused with solutions containing different concentrations of alpha-mangostin with 1000 µM carvacrol. A solution containing 10 µM RR and 1000 µM carvacrol was perfused at the end. (D) Summary of normalized currents evoked by carvacrol with or without alpha-mangostin at −100 mV. Currents were normalized to the maximum response carvacrol at −100 mV. (E) Alpha-mangostin inhibited 2-APB-evoked current in NHEK. The channel was activated using 100 µM 2-APB and subsequently perfused with solutions containing different concentrations of alpha-mangostin with 100 µM 2-APB. A solution containing 10 µM 74a (a TRPV3 inhibitor) and 100 µM 2-APB was perfused at the end. […] The right panel summarizes normalized currents evoked by 2-APB with or without alpha-mangostin at −100 mV. Currents were normalized to the maximum response to 2-APB at −100 mV. Data are presented as means ± SEM. ** p < 0.01, *** p < 0.001, **** p < 0.0001.
HEK 293T cells were purchased from the American Type Culture Collection (Cat. No. CRL-3216, ATCC, Manassas, VA, USA). TRPV3-overexpressing HEK 293T cells were supplied by Prof. Wan Lee (Dongguk University College of Medicine, Gyeongju, South Korea). HEK 293T cells expressing TRPV3 mutants (G573S, G573C), TRPV4, TRPA1 were made by transient transfection. These cells were cultured in Dulbecco’s modified Eagle’s medium (DMEM, Welgene, Daegu, Korea) containing 10% fetal bovine serum (FBS; Welgene) and 1% penicillin/streptomycin (P/S; Life Technologies, Carlsbad, CA, USA). […]
[…] Sampling at 10 kHz and low-pass filtering at 5 kHz (w-c) were applied for all recorded currents. Recorded data were analyzed using Clampfit ver. […]

Question: With `COc1c(O)cc2oc3cc(O)c(CC=C(C)C)c(O)c3c(=O)c2c1CC=C(C)C` [Alpha-mangostin] as the compound, how does the “Inhibition of 2-APB-evoked TRPV3 currents” value (10 µM, 100 µM 2-APB, −100 mV, similar level to 10 µM ruthenium red) read?
Answer: The value was “almost completely inhibited”.

Question: And the inhibition at 0.3 µM (HEK-293T, 0.3 µM, −100 mV, read-out: Inhibition percentage of TRPV3 current)?
Answer: The inhibition at 0.3 µM was 76.6%.

Question: What about the IC50 (hTRPV3-overexpressing HEK 293T, 100 µM 2-APB, at −100 mV, read-out: IC50, inhibition of 2-APB-induced TRPV3 current) of the same compound?
Answer: The IC50 was 77 ± 13 nM.

Question: What about the “Reversibility of inhibitory effect on TRPV3 current” value (wash out, 100 µM 2-APB, −60 mV holding potential) of the same compound?
Answer: Its value is “partly reversible”.
